Measured values taken from ChEMBL document CHEMBL1121774, “Interaction of 5-ethynyl-2'-deoxyuridylate with thymidylate synthetase” (J Med Chem, 1981).

How the values were obtained:
Thymidylate synthase = target: T1, Thymidylate synthase (Lactobacillus casei, UniProt P00469); assay: The compound was tested for inhibition of dTMP synthetase from Lactobacillus casei; set-up: species or system Lacticaseibacillus casei
T1 sequence (P00469 whole entry): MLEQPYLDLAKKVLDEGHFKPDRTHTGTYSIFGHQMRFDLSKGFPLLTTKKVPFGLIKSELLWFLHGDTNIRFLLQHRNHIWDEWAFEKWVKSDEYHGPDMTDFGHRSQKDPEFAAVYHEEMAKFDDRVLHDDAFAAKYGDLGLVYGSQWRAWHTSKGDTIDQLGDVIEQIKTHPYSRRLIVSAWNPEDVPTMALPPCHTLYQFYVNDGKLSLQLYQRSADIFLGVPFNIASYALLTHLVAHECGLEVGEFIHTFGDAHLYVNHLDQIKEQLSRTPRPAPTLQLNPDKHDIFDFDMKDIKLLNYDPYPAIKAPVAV

[1] = target: T2, Thymidylate synthase (Lactobacillus casei) (UniProt P00469); assay: Binding of 0.1 mM [14C]5,10-CH2-H4 folate to 2.5 nmol dTMP synthetase from Lactobacillus casei; conditions: Lacticaseibacillus casei
T2 sequence (whole entry): T1 sequence (P00469 whole entry)

Work on `C#Cc1cn([C@H]2C[C@H](O)[C@@H](COP(=O)(O)O)O2)c(=O)[nH]c1=O` yielded a Ki (Thymidylate synthase) of 2700 nM and a dpm bound to protein [1] of 1110.

Work on `O=c1[nH]c(=O)n([C@H]2C[C@H](O)[C@@H](COP(=O)(O)O)O2)cc1F` yielded a dpm bound to protein [1] of 15500.
